According to patent publication US11377442B2, “Small molecule agonists and antagonists of NR2F6 activity” (ZANDER THERAPEUTICS, INC., priority 2016, dated 2022):
“Also recorded” adds a separate entry of the source. Read-outs that look alike come from different tables or passages of the source.

How the values were obtained:
Assay type in all cases: cell-based
Renilla_ERa = test: Renilla signal in ERα counterscreen (Renilla_ERa); details: ERα transient transfection, 10 μM
NR2F6 = target: T1, NR2F6 (Homo sapiens, UniProt P10588); test: NR2F6 agonist screening, Firefly signal cmpd/DMSO; details: for activity (in words): screening result
T1 construct: expressed in transfected cells; also transient transfection
T1 sequence (P10588 1-404): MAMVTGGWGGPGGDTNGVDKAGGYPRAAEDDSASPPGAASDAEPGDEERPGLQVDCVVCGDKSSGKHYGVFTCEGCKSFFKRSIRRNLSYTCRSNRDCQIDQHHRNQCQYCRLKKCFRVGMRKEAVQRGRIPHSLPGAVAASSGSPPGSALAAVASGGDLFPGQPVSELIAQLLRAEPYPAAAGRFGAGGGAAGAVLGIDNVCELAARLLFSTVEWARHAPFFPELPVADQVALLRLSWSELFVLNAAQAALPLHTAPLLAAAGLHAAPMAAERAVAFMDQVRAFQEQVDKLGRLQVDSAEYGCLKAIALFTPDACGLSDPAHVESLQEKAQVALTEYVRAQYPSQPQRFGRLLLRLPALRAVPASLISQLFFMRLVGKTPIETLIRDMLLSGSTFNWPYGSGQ

Renilla = Renilla signal in NR2F6 agonist screening, cmpd/DMSO; details: Renilla
HEK293 pGL4 = test: Firefly_pGL signal, cmpd/DMSO (pGL4 control cells); details: Homo sapiens, HEK293, Table 14, read-out: Firefly pGL4, cmpd/DMSO (mean)
ERα [1] = target: T2, ERα (Homo sapiens, UniProt P03372); test: Counterscreening, Firefly signal with ERα transient transfection (Firefly_ERa); details: for Firefly_ERa, cmpd/DMSO repeat 1 / Firefly_ERa, cmpd/DMSO repeat 2: ERα transient transfection, 10 μM; for Firefly ERalpha transient, cmpd/DMSO (mean): Table 15, 10 uM
T2 construct: expressed in transfected cells
T2 sequence (P03372 1-595): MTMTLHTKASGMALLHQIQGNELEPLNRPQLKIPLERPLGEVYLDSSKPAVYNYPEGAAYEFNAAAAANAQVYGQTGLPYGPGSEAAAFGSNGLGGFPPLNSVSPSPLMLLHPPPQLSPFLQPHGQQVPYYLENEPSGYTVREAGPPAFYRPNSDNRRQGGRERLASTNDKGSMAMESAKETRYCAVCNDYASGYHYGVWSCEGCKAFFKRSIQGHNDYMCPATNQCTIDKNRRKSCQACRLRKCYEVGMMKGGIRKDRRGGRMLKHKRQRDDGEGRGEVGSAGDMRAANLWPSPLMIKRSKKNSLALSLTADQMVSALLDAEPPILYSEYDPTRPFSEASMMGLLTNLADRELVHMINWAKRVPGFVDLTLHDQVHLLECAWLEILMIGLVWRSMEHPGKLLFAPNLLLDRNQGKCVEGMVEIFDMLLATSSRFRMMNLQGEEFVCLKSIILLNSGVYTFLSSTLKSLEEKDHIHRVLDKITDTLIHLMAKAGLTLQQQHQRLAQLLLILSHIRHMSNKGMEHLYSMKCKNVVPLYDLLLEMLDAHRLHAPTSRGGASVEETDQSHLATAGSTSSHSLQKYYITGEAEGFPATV
Procedure: The methodology for screening candidate compounds as NR2F6 agonists was as follows: For primary screening, hit criteria was ACT %>DMSO control+5*SD (DSO control) at 10 μM, or any compound with S/B>2. For rescreening, hit criteria was ACT %>DMSO control+3*SD (DSO control) in each replicate at 10 μM. For counterscreening, hit criteria was mean ACT<DMSO control+3*SD (DMSO control) with ERα transient transfection in duplicate at 10 μM.

ERα [2] = target: T2, ERα; test: as above; details: Table 15
[3] = repeat 1, read-out: Renilla_ERa, cmpd/DMSO repeat 1
[4] = repeat 2, read-out: Renilla_ERa, cmpd/DMSO repeat 2
[5] = Table 14, read-out: Renilla F4, cmpd/DMSO (mean)
[6] = Table 14, 10 uM, read-out: Renilla F4, cmpd/DMSO (mean)
[7] = first set screening, 10 μM, repeat 1, read-out: Renilla, cmpd/DMSO repeat 1
[8] = first set screening, 10 μM, repeat 2, read-out: Renilla, cmpd/DMSO repeat 2
[9] = C11 analogs follow set (Tables 2-10)

Row | SMILES | fold induction at 10 µM (Renilla_ERa; [3]) | fold induction at 10 µM (Renilla_ERa; [4]) | Firefly F4, cmpd/DMSO (mean) (NR2F6; Table 14, 2 uM) | Firefly F4, cmpd/DMSO (mean) (NR2F6; Table 14, 10 uM) | Firefly F4, cmpd/DMSO (mean) (NR2F6; Table 14, 40 uM) | Firefly, cmpd/DMSO repeat 1 (NR2F6; first set screening, 10 μM) | Firefly, cmpd/DMSO repeat 2 (NR2F6; first set screening, 10 μM) | fold induction at 2 µM (Renilla; [5]) | fold induction at 10 µM (Renilla; [6]) | fold induction at 40 µM (Renilla; [5]) | fold induction at 10 µM (Renilla; [7]) | fold induction at 10 µM (Renilla; [8]) | fold induction at 2 µM (HEK293 pGL4) | fold induction at 10 µM (HEK293 pGL4) | Firefly ERalpha transient, cmpd/DMSO (mean) (ERα [2]; 2 uM) | Firefly ERalpha transient, cmpd/DMSO (mean) (ERα [2]; 40 uM) | Firefly F4, cmpd/DMSO (mean) (NR2F6; Table 15, 2 uM) | Firefly F4, cmpd/DMSO (mean) (NR2F6; Table 15, 10 uM) | Firefly F4, cmpd/DMSO (mean) (NR2F6; Table 15, 40 uM) | Firefly ERalpha transient, cmpd/DMSO (mean) (ERα [1]) | other results
1 | O=C(Nc1cccc(O)c1)c1cc(-c2ccc(Cl)c(Cl)c2)on1 [Compound C5] | 1.2 | 1 | 0.9 | 0.8 | 0.8 | 2.2 | 1.7 | 0.7 | 0.5 | 1.1 | 1.3 | 1.4 | 1.3 | 1.2 |  |  |  |  |  |  | fold induction at 40 µM (HEK293 pGL4): 1; Firefly_ERa, cmpd/DMSO repeat 1 (ERα [1]): 1.6; Firefly_ERa, cmpd/DMSO repeat 2 (ERα [1]): 2.0
2 | CCc1cc(C(=O)Nc2ccn(Cc3ccc(C)cc3)n2)no1 [Compound C6] | 1 | 1 | 1.4 | 0.6 | 0.4 | 2.6 | 1.9 | 0.7 | 0.6 | 0.5 | 1.2 | 0.9 | 1.3 | 1.3 |  |  |  |  |  |  | fold induction at 40 µM (HEK293 pGL4): 1; Firefly_ERa, cmpd/DMSO repeat 1 (ERα [1]): 2.2; Firefly_ERa, cmpd/DMSO repeat 2 (ERα [1]): 1.4
3 | CCc1cccc(Nc2cnn(-c3nc4ccccc4s3)c(=O)c2Cl)c1 [Compound C7] | 0.8 | 0.8 | 0.6 | 0.5 | 0.4 | 2.1 | 2.1 | 1 | 0.3 | 0.4 | 1.1 | 1.4 | 0.9 | 0.8 |  |  |  |  |  |  | activity (in words) (NR2F6): particularly good activity; fold induction at 40 µM (HEK293 pGL4): 0.8; Firefly_ERa, cmpd/DMSO repeat 1 (ERα [1]): 0.8; Firefly_ERa, cmpd/DMSO repeat 2 (ERα [1]): 0.5
4 | COC(=O)c1ccc2oc(=O)c(S(=O)(=O)c3ccccc3)cc2c1 [Compound C11] | 1.3 | 1.2 | 1.7 | 1.6 | 0.4 | 13.5 | 12.6 | 1.1 | 1.2 | 0.2 | 3.8 | 3.3 | 1.1 | 1.7 |  |  |  |  |  |  | Firefly, cmpd/DMSO repeat 1 (NR2F6; [9]): 24.6; Firefly, cmpd/DMSO repeat 2 (NR2F6; [9]): 21.3; Firefly/Renilla (NR2F6 stable, clone F4) (NR2F6; Table 12, ratio Firefly/Renilla, NR2F6 stable clone F4): 1.8; Firefly, NR2F6 stable (clone F4)/pGL4 (NR2F6; Table 12, ratio of Firefly in NR2F6 stable clone F4 to pGL4): 7.0; Firefly, cmpd/DMSO repeat 1 (NR2F6; Table 12): 24.6; Firefly, cmpd/DMSO repeat 2 (NR2F6; Table 12): 21.3; activity (in words) (NR2F6): particularly good activity; also recorded: particularly promising; fold induction at 40 µM (HEK293 pGL4): 0.8; Firefly_ERa, cmpd/DMSO repeat 1 (ERα [1]): 1.7; Firefly_ERa, cmpd/DMSO repeat 2 (ERα [1]): 1.7
5 | CCOC(=O)c1cnc2c(C)cc(C)cc2c1NCCCN1CCCCC1 [Compound Z9] |  |  |  |  |  |  |  |  |  |  |  |  |  |  | 2.2 | 0.5 | 2.5 | 6.7 | 1.2 | 2.7 | 
6 | CCOC(=O)c1cnc2c(C)cc(C)cc2c1NCCCN1CCCCC1 [Compound Z10] |  |  |  |  |  |  |  |  |  |  |  |  |  |  | 4.2 | 0.5 | 5.8 | 1.6 | 0.7 | 1.5 | 
7 | CCOC(=O)c1cnc2c(C)cc(C)cc2c1NCCCN1CCCCC1 [Compound Z11] |  |  |  |  |  |  |  |  |  |  |  |  |  |  | 2.1 | 0.6 | 3.5 | 1.2 | 0.5 | 1.6 | 
8 | CCOC(=O)c1cnc2c(C)cc(C)cc2c1NCCCN1CCCCC1 [Compound Z12] |  |  |  |  |  |  |  |  |  |  |  |  |  |  | 2.4 | 0.4 | 3.9 | 1.8 | 0.4 | 1.3 | 
9 | CCOC(=O)c1cnc2c(C)cc(C)cc2c1NCCCN1CCCCC1 [Compound Z17] |  |  |  |  |  |  |  |  |  |  |  |  |  |  | 1.7 | 2.9 | 1.5 | 6.5 | 0.6 | 9.5 | 
10 | CCOC(=O)c1cnc2c(C)cc(C)cc2c1NCCCN1CCCCC1 [Compound Z19] |  |  |  |  |  |  |  |  |  |  |  |  |  |  | 1.9 | 0.7 | 1.3 | 6.3 | 0.7 | 12.7 | 
